Results on two compounds are retold here after patent US11291642B2, “Dimethyl fumarate particles and pharmaceutical compositions thereof” (BIOGEN MA INC., priority 2015, dated 2022).

Assay type in all cases: physicochemical
A short description of data set [1]: Mean particle size of coarse DMF from current synthesis (method not given). Particulars: DMF isolated from current chemical synthesis, before size reduction.
The nature of data set [2]: Comparison of unmilled coarse DMF versus wet-milled DMF for enteric coating in fluid bed. The conditions noted are these: for Coated crystals: enterically coated particles made from the named API; for Flow of API particle in fluid bed: fluid bed coating process; for Particle morphology: uncoated API particles. Here is the method:
The enteric coated DMF is prepared using a Glatt GPCG-2 fluid bed granulator with a 6′ Wurster column. Dissolution was run with USP apparatus II by the Pharmaceutical Analytical Development Department with the following method.
DMF first de-lumped with a Frewitt Comill with screen size 1.0 mm. Then, it is mixed with silicon dioxide (Aerosil) and being fluidize in the fluid bed granulator for 5 minutes.
Eudragit L100 and triethyl citrate is used for coating an enteric layer for stomach acid protection on the DMF API particles. Samples were taken at different L100 weight gain to compare gastric protection capability.
Unmilled coarse DMF were coated according to the method of described in Example 5. Various properties of the unmilled coarse DMF and enterically coated DMF are compared with wet-milled DMF and enterically coated DMF made from wet-milled DMF.

Data set [3] is described as follows: Flow of drug product blend measured with Flodex. The conditions noted are these: blends of DMF with other excipients as in approved twice a day formulation; FIG. 1. An excerpt: The y-axis indicates the aperture of cone containing the blend powder. Smaller aperture indicates better flow.
Data set [4] in a line: Particle morphology by Malvern Morphologi G3. The conditions noted are these: compared to jet milled material. Here is the method:
As used herein, “aspect ratio” is the ratio of width divided by length of a particle. “Elongation” is defined as 1-aspect ratio. Shapes symmetrical in all axes, such as circles or squares, will tend to have an elongation close to 0, whereas needle-shaped particles will have values closer to 1. Elongation is more an indication of overall form than surface roughness. As used herein, “convexity” is a measurement of the surface roughness of a particle and is calculated by dividing the perimeter of an imaginary elastic band around the particle by the true perimeter of the particle. A smooth shape, regardless of form, has a convexity of 1 while a very ‘spiky’ or irregular object has a convexity closer to 0. As used herein, “circularity” or “high sensitivity circularity” is a measurement of the ratio of […]. A perfect circle has a circularity of 1 while a very narrow rod has a High Sensitivity (HS) Circularity close to 0. The higher the HS Circularity value the closer it is to a circle. Intuitively, circularity is a measure of irregularity or the difference from a perfect circle. […] The percentage of thicker particles can be determined using Malvern Instrument Morphologi G3. […] The intensity of light is quantified by the grey scale factor which depends on the amount of light reaching the detector. […]

The mark [5] stands for this setting: listed as wet-milled DMF particles.

Counter-ions that a name gives are not always drawn.

On to `COC(=O)/C=C/C(=O)OC` [Unmilled coarse API, dimethyl fumarate], for which, in data set [1], the “typical mean particle size” value is reported as 500-600 microns. In data set [2], the Coated crystals entry was “Significant agglomeration”, the “Flow of API particle in fluid bed” value is “Uneven flow due to API plate” and the Particle morphology is 2D plate structure. Moreover, in data set [2] (listed as unmilled coarse DMF particles), the Coated crystals entry is recorded as “Significant agglomeration of the coated particles”.
`COC(=O)/C=C/C(=O)OC` [Wet milled API, dimethyl fumarate]: the “Powder flow of drug product blend” value in data set [3] is on record as “improvement in powder flow”. In data set [4], the “Particle shape (aspect ratio, HS circularity, convexity)” value was “slightly less elongated, more circular and less edgy”; the “Thick particles (percentage of particles with intensity <80)” value is reported as “contained more thick particles”. Moreover, in data set [2], the Coated crystals entry was “Isolated and small”; the “Flow of API particle in fluid bed” value is listed as “uniform flow”; the Particle morphology turned out to be 3D structure. In addition, in data set [2] (setting [5]), the Coated crystals result is “small coated particles with uniform size distribution”, the “Flow of API particle in fluid bed” value was “desirable flowability” and the Particle morphology entry was “three dimensional morphology”. The “Particle size D50” value in data set [2] (uncoated API, Table 8) is recorded as “D50 = 60-100 μm”.
